Measured values as given in patent US11214594B2, “Antimicrobial peptide having synergistic antibacterial effect with antibiotics on multidrug resistant bacteria, and use thereof” (priority 2016, dated 2022).
≈ marks a conversion by molar mass, not a printed value. Where a SMILES comes first, the peptide text is derived from it. [ ]: non-standard residue; d: D form.

What was measured:
MDREC 1229 = test: MIC of antibiotic during combined treatment with antimicrobial peptide; assay type: cell-based, Escherichia coli
Procedure, shortened: (§1)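 Strains in MH medium at 2×10^6 CFU/ml were mixed with peptide diluted stepwise (2:1) from its MIC, then antibiotic dilutions in MH medium were added to give the antibiotic MIC. The reversed set-up, peptide titrated against fixed antibiotic, gave the peptide MIC.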

MDRPA 2003 = assay type: cell-based, Pseudomonas aeruginosa
Procedure, shortened: (§2)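 Each strain is brought to 2×10^6 CFU in nutrient-sufficient Mueller-Hinton medium and dispensed into wells. Peptide solutions, stepwise diluted 2:1 in the same medium, are then added. The minimal concentration preventing growth gives the MIC.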

MDRPA 2002 = assay type: cell-based, Pseudomonas aeruginosa
Procedure, shortened: as §2

B. subtilis = test: microbe, parasite or virus in culture; assay type: cell-based, Bacillus subtilis
Procedure, shortened: as §2

S. epidermidis = test: microbe, parasite or virus in culture; assay type: cell-based, Staphylococcus epidermidis
Procedure, shortened: as §2

MDRST 8007 = test: Minimal inhibitory concentration (MIC), single agent; assay type: cell-based, Salmonella typhimurium; details: agent alone
Procedure, shortened: as §2

S. aureus = test: microbe, parasite or virus in culture; assay type: cell-based, Staphylococcus aureus
Procedure, shortened: as §2

MDRAB 12035 = test: MIC of antimicrobial peptide during combined treatment with antibiotic; assay type: cell-based, Acinetobacter baumannii
Procedure, shortened: as §1

A. baumannii = test: as above; assay type: cell-based, Acinetobacter baumannii
Procedure, shortened: as §1

S. typhimurium = test: microbe, parasite or virus in culture; assay type: cell-based, Salmonella typhimurium
Procedure, shortened: as §2

[1] = peptide treatment concentration 2 μg/ml
[2] = peptide treatment concentration 4 μg/ml
[3] = peptide treatment concentration 6 μg/ml
[4] = peptide treatment concentration 8 μg/ml
[5] = peptide treatment concentration 16 μg/ml
[6] = peptide treatment concentration 32 μg/ml
[7] = peptide treatment concentration 64 μg/ml
[8] = erythromycin 4 μg/ml (Conc./MIC 1/8)
[9] = erythromycin 8 μg/ml (Conc./MIC 1/4)
[10] = erythromycin 16 μg/ml (Conc./MIC 1/2)
[11] = erythromycin 32 μg/ml (Conc./MIC 1)
[12] = vancomycin 512 μg/ml (Conc./MIC 1/2)
[13] = vancomycin 1024 μg/ml (Conc./MIC 1)

CC[C@H](C)[C@H](NC(=O)[C@H](CCCCN)NC(=O)[C@H](Cc1c[nH]c2ccccc12)NC(=O)[C@@H](N)CCCNC(=N)N)C(=O)N[C@@H](Cc1ccccc1)C(=O)N[C@@H](CCCCN)C(=O)N[C@@H](CCCCN)C(=O)N[C@H](C(=O)N[C@H](CC(C)C)C(=O)N[C@@H](CCCCN)C(=O)N[C@@H](CC(C)C)C(=O)N[C@@H](CC(C)C)C(=O)N[C@@H](Cc1c[nH]cn1)C(=O)N[C@@H](CCCCN)C(=O)N[C@@H](C)C(=O)N[C@@H](CCCCN)C(=O)N[C@@H](CCCCN)C(=O)N[C@@H](Cc1c[nH]c2ccccc12)C(N)=O)[C@@H](C)CC [PapMA-22, RWK IFK KIl KLL HKA KKW-NH2] (H-RWKIFKKI[dL]KLLHKAKKW-NH2; N-terminus assumed)
Antibiotic MIC, Erythromycin (MDREC 1229; [1]): 32 µg/mL
Antibiotic MIC, Linezolid (MDREC 1229; [1]): >128 µg/mL
Antibiotic MIC, Vancomycin (MDREC 1229; [1]): >128 µg/mL
Antibiotic MIC, Erythromycin (MDREC 1229; [2]): 32 µg/mL
Antibiotic MIC, Linezolid (MDREC 1229; [2]): 128 µg/mL
Antibiotic MIC, Vancomycin (MDREC 1229; [2]): >128 µg/mL
Antibiotic MIC, Erythromycin (MDREC 1229; [3]): 16 µg/mL
Antibiotic MIC, Linezolid (MDREC 1229; [3]): 64 µg/mL
Antibiotic MIC, Vancomycin (MDREC 1229; [3]): >128 µg/mL
Antibiotic MIC, Erythromycin (MDREC 1229; [4]): 4 µg/mL
Antibiotic MIC, Linezolid (MDREC 1229; [4]): 32 µg/mL
Antibiotic MIC, Vancomycin (MDREC 1229; [4]): 64 µg/mL
Antibiotic MIC, Erythromycin (MDREC 1229; [5]): 2 µg/mL
Antibiotic MIC, Linezolid (MDREC 1229; [5]): 16 µg/mL
Antibiotic MIC, Vancomycin (MDREC 1229; [5]): 32 µg/mL
Antibiotic MIC, Erythromycin (MDREC 1229; [6]): 0 µg/mL
Antibiotic MIC, Linezolid (MDREC 1229; [6]): 0 µg/mL
Antibiotic MIC, Vancomycin (MDREC 1229; [6]): 0 µg/mL
Antibiotic MIC, Erythromycin (MDREC 1229; [7]): 0 µg/mL
Antibiotic MIC, Linezolid (MDREC 1229; [7]): 0 µg/mL
Antibiotic MIC, Vancomycin (MDREC 1229; [7]): 0 µg/mL
Minimal inhibitory concentration MIC (MDRPA 2003): 32 µg/mL (≈ 13.5 µM)
Minimal inhibitory concentration MIC (MDRPA 2002): 32 µg/mL (≈ 13.5 µM)
Minimal inhibitory concentration MIC (B. subtilis): >128 µg/mL
Minimal inhibitory concentration MIC (S. epidermidis): >128 µg/mL
Minimal inhibitory concentration MIC (MDRST 8007): 32 µg/mL (≈ 13.5 µM)
Minimal inhibitory concentration MIC (S. aureus): >128 µg/mL
Peptide MIC during treatment with erythromycin (MDRAB 12035; [8]): 8 µg/mL
Peptide MIC during treatment with erythromycin (MDRAB 12035; [9]): 8 µg/mL
Peptide MIC during treatment with erythromycin (MDRAB 12035; [10]): 4 µg/mL
Peptide MIC during treatment with erythromycin (MDRAB 12035; [11]): 0 µg/mL
Peptide MIC during treatment with linezolid (MDRAB 12035; linezolid 64 μg/ml (Conc./MIC 1/8)): 4 µg/mL
Peptide MIC during treatment with linezolid (MDRAB 12035; linezolid 512 μg/ml (Conc./MIC 1)): 0 µg/mL
Peptide MIC during treatment with linezolid (MDRAB 12035; linezolid […] (Conc./MIC 1/2)): 1 µg/mL
Peptide MIC during treatment with linezolid (MDRAB 12035; linezolid […] (Conc./MIC 1/4)): 4 µg/mL
Peptide MIC during treatment with vancomycin (MDRAB 12035; [12]): 4 µg/mL
Peptide MIC during treatment with vancomycin (MDRAB 12035; [13]): 1 µg/mL
Peptide MIC during treatment with vancomycin (MDRAB 12035; vancomycin […] (Conc./MIC 1/4)): 4 µg/mL
Peptide MIC during treatment with vancomycin (MDRAB 12035; vancomycin […] (Conc./MIC 1/8)): 4 µg/mL
Peptide MIC during treatment with erythromycin (A. baumannii; [8]): 8 µg/mL
Peptide MIC during treatment with erythromycin (A. baumannii; [9]): 4 µg/mL
Peptide MIC during treatment with erythromycin (A. baumannii; [10]): 4 µg/mL
Peptide MIC during treatment with erythromycin (A. baumannii; [11]): 0 µg/mL
Peptide MIC during treatment with linezolid (A. baumannii; linezolid 32 μg/ml (Conc./MIC 1/8)): 4 µg/mL
Peptide MIC during treatment with linezolid (A. baumannii; linezolid 64 μg/ml (Conc./MIC 1/4)): 4 µg/mL
Peptide MIC during treatment with linezolid (A. baumannii; linezolid […] (Conc./MIC 1)): 0 µg/mL
Peptide MIC during treatment with linezolid (A. baumannii; linezolid […] (Conc./MIC 1/2)): 1 µg/mL
Peptide MIC during treatment with vancomycin (A. baumannii; [12]): 0.25 µg/mL
Peptide MIC during treatment with vancomycin (A. baumannii; [13]): 0 µg/mL
Peptide MIC during treatment with vancomycin (A. baumannii; vancomycin […] (Conc./MIC 1/4)): 0.5 µg/mL
Peptide MIC during treatment with vancomycin (A. baumannii; vancomycin […] (Conc./MIC 1/8)): 2 µg/mL
Minimal inhibitory concentration MIC (S. typhimurium): 32 µg/mL (≈ 13.5 µM)
